# Data reported in US20110318741A1, “BIOMARKERS FOR THE TREATMENT OF PSORIASIS” (priority 2010, published 2011).
# Tested on: proinflammatory gene products in psoriasis lesional skin
# Assay: mRNA abundance of inflammatory molecules in skin biopsies by real-time RT-PCR, normalized to hARP
# Assay type: in vivo, human
# Conditions: for IL-22/hARP: Gene Expression Median Change (%) / IL-2/hARP: Gene Expression Median Change (%) / p40/hARP: Gene Expression Median Change (%) / CD83/hARP: Gene Expression Median Change (%) / IFNγ/hARP: Gene Expression Median Change (%) / iNOS/hARP: Gene Expression Median Change (%) / DEFB4/hARP: Gene Expression Median Change (%) / IL-17A/hARP: Gene Expression Median Change (%) / CXCL9/hARP: Gene Expression Median Change (%) / MX1/hARP: Gene Expression Median Change (%) / TNFα/hARP: Gene Expression Median Change (%) / IL-8/hARP: Gene Expression Median Change (%) / IL-10/hARP: Gene Expression Median Change (%) / K16/hARP: Gene Expression Median Change (%) / p19/hARP: Gene Expression Median Change (%): subjects also with PASI values
# Description: mRNA abundance for a variety of inflammatory molecules was measured by real-time RT-PCR and expression was normalized to the house-keeping gene HARP (human acidic ribosomal protein). Inflammatory markers assessed by mRNA levels included the chemokine CXCL9, beta-defensin (DEFB4), interferon-gamma, IL-10, IL-17a, IL-22, IL-8, keratin 16, MX-1, IL-12/23 p40, IL-23 p19, iNOS and TNF. These are inflammatory molecules produced by activated DC populations, Th1, Th17, Th22 T-cells and response genes to interferon (MX-1. CXCL9) or IL-17 (defensin). Keratin 16 was also measured by mRNA levels to assess the epidermal response by an alternate means.
# The pharmacodynamic effects of (S)—N-(2-(1-(3-ethoxy-4-methoxyphenyl)-2-(methylsulfonyl)ethyl)-1,3-dioxoisoindolin-4-yl)acetamide were studied in skin biopsies from subjects treated with the compound in a phase 2, multi-center, open-label study evaluating the safety, tolerability, and efficacy of the compound in recalcitrant psoriasis vulgaris. Skin biopsies were taken from uninvolved and involved skin at baseline, and from involved skin after treatment with (S)—N-(2-(1-(3-ethoxy-4-methoxyphenyl)-2-(methylsulfonyl)ethyl)-1,3-dioxoisoindolin-4-yl)acetamide 20 mg BID after 4 and 12 weeks.
# The expression of proinflammatory gene products known to be involved in the pathogenesis of psoriasis was measured by real-time polymerase chain reaction (RT-PCR). With regard to gene expression, there were reductions in iNOS and IL-12/IL-23 p40 mRNAs along with reductions in IL-17A and IL-22 mRNAs, indicating inhibition of the Th1, Th17, and Th22 pathways (FIG. 5). […] Normalized IL-17A mRNA levels were reduced by 49% at week 12 and normalized IL-22 mRNA levels were reduced by 100% at week 12. DEFB4, a defensin induced in keratinocytes by IL-17, was reduced by 55% in week 4 biopsies and by 82% in week 12 biopsies. IL-8, which is induced in keratinocytes by IL-17, was reduced by 76% in week 4 biopsies and by 66% in week 12 biopsies.
compound,measurement,setting,value
"CCOc1cc([C@@H](CS(C)(=O)=O)N2C(=O)c3cccc(NC(C)=O)c3C2=O)ccc1OC [(S)—N-(2-(1-(3-ethoxy-4-methoxyphenyl)-2-(methylsulfonyl)ethyl)-1,3-dioxoisoindolin-4-yl)acetamide]",IL-22/hARP: Gene Expression Median Change (%),"Week 4, 20 mg BID, No. 10",−74.4%
same,IL-2/hARP: Gene Expression Median Change (%),"Week 4, 20 mg BID, No. 12",3.33%
same,p40/hARP: Gene Expression Median Change (%),"Week 4, 20 mg BID, No. 13",−100%
same,CD83/hARP: Gene Expression Median Change (%),"Week 4, 20 mg BID, No. 15",−12.4%
same,IFNγ/hARP: Gene Expression Median Change (%),"Week 4, 20 mg BID, No. 15",−38.2%
same,iNOS/hARP: Gene Expression Median Change (%),"Week 4, 20 mg BID, No. 15",−61.0%
same,DEFB4/hARP: Gene Expression Median Change (%),"Week 4, 20 mg BID, No. 16",−55.4%
same,IL-17A/hARP: Gene Expression Median Change (%),"Week 4, 20 mg BID, No. 16",−72.5%
same,CXCL9/hARP: Gene Expression Median Change (%),"Week 4, 20 mg BID, No. 17",−30.7%
same,MX1/hARP: Gene Expression Median Change (%),"Week 4, 20 mg BID, No. 17",−51.1%
same,TNFα/hARP: Gene Expression Median Change (%),"Week 4, 20 mg BID, No. 17",−13.0%
same,IL-8/hARP: Gene Expression Median Change (%),"Week 4, 20 mg BID, No. 18",−76.4%
same,IL-10/hARP: Gene Expression Median Change (%),"Week 4, 20 mg BID, No. 18",−49.1%
same,K16/hARP: Gene Expression Median Change (%),"Week 4, 20 mg BID, No. 18",−62.0%
same,p19/hARP: Gene Expression Median Change (%),"Week 4, 20 mg BID, No. 18",−53.4%
same,CXCL9 (MIG) mRNA: Median % change from baseline (normalized to hARP),"Week 4, 20 mg b.i.d.",−30.7%
same,DEFB4 mRNA: Median % change from baseline (normalized to hARP),"Week 4, 20 mg b.i.d.",−55.4%
same,IFN-g mRNA: Median % change from baseline (normalized to hARP),"Week 4, 20 mg b.i.d.",−38.2%
same,IL-8 mRNA: Median % change from baseline (normalized to hARP),"Week 4, 20 mg b.i.d.",−76.4%
same,IL-10 mRNA: Median % change from baseline (normalized to hARP),"Week 4, 20 mg b.i.d.",−49.1%
same,IL-12/IL-23 p40 mRNA: Median % change from baseline (normalized to hARP),"Week 4, 20 mg b.i.d.",−100%
same,IL-17A mRNA: Median % change from baseline (normalized to hARP),"Week 4, 20 mg b.i.d.",−72.5%
same,IL-22 mRNA: Median % change from baseline (normalized to hARP),"Week 4, 20 mg b.i.d.",−74.4%
same,IL-23p19 mRNA: Median % change from baseline (normalized to hARP),"Week 4, 20 mg b.i.d.",−53.4%
same,K-16 mRNA: Median % change from baseline (normalized to hARP),"Week 4, 20 mg b.i.d.",−62.0%
same,MX-1 mRNA: Median % change from baseline (normalized to hARP),"Week 4, 20 mg b.i.d.",−51.1%
same,iNOS mRNA: Median % change from baseline (normalized to hARP),"Week 4, 20 mg b.i.d.",−61.0%
same,median reduction in normalized MX-1 mRNA,"Week 4, 20 mg b.i.d.",51%
same,reduction of normalized iNOS mRNA expression,"Week 4, 20 mg b.i.d.",61%
same,IL-22/hARP: Gene Expression Median Change (%),"Week 12, 20 mg BID, No. 6",−100%
same,p40/hARP: Gene Expression Median Change (%),"Week 12, 20 mg BID, No. 7",−51.5%
same,DEFB4/hARP: Gene Expression Median Change (%),"Week 12, 20 mg BID, No. 10",−82.0%
same,IL-2/hARP: Gene Expression Median Change (%),"Week 12, 20 mg BID, No. 10",−25.0%
same,IL-17A/hARP: Gene Expression Median Change (%),"Week 12, 20 mg BID, No. 10",−46.7%
same,CD83/hARP: Gene Expression Median Change (%),"Week 12, 20 mg BID, No. 11",27.39%
same,CXCL9/hARP: Gene Expression Median Change (%),"Week 12, 20 mg BID, No. 11",−15.8%
same,MX1/hARP: Gene Expression Median Change (%),"Week 12, 20 mg BID, No. 11",−51.5%
same,iNOS/hARP: Gene Expression Median Change (%),"Week 12, 20 mg BID, No. 11",−100%
same,IFNγ/hARP: Gene Expression Median Change (%),"Week 12, 20 mg BID, No. 12",−15.3%
same,TNFα/hARP: Gene Expression Median Change (%),"Week 12, 20 mg BID, No. 13",−41.3%
same,IL-8/hARP: Gene Expression Median Change (%),"Week 12, 20 mg BID, No. 14",−79.2%
same,IL-10/hARP: Gene Expression Median Change (%),"Week 12, 20 mg BID, No. 14",−15.3%
same,K16/hARP: Gene Expression Median Change (%),"Week 12, 20 mg BID, No. 14",−82.5%
same,p19/hARP: Gene Expression Median Change (%),"Week 12, 20 mg BID, No. 14",−67.9%
same,CXCL9 (MIG) mRNA: Median % change from baseline (normalized to hARP),"Week 12, 20 mg b.i.d.",−36.4%
same,DEFB4 mRNA: Median % change from baseline (normalized to hARP),"Week 12, 20 mg b.i.d.",−82.3%
same,IFN-g mRNA: Median % change from baseline (normalized to hARP),"Week 12, 20 mg b.i.d.",−37.6%
same,IL-8 mRNA: Median % change from baseline (normalized to hARP),"Week 12, 20 mg b.i.d.",−66.5%
same,IL-10 mRNA: Median % change from baseline (normalized to hARP),"Week 12, 20 mg b.i.d.",−26.5%
same,IL-12/IL-23 p40 mRNA: Median % change from baseline (normalized to hARP),"Week 12, 20 mg b.i.d.",−86.7%
same,IL-17A mRNA: Median % change from baseline (normalized to hARP),"Week 12, 20 mg b.i.d.",−49.4%
same,IL-22 mRNA: Median % change from baseline (normalized to hARP),"Week 12, 20 mg b.i.d.",−100%
same,IL-23p19 mRNA: Median % change from baseline (normalized to hARP),"Week 12, 20 mg b.i.d.",−68.3%
same,K-16 mRNA: Median % change from baseline (normalized to hARP),"Week 12, 20 mg b.i.d.",−78.6%
same,MX-1 mRNA: Median % change from baseline (normalized to hARP),"Week 12, 20 mg b.i.d.",−52.6%
same,iNOS mRNA: Median % change from baseline (normalized to hARP),"Week 12, 20 mg b.i.d.",−100%
same,median reduction in K16 mRNA,"Week 12, 20 mg b.i.d.",78%
same,reduction in normalized MX-1 mRNA,"Week 12, 20 mg b.i.d.",52%
same,reduction of normalized IL-17A mRNA levels,"Week 12, 20 mg b.i.d.",49%
same,reduction of normalized IL-22 mRNA levels,"Week 12, 20 mg b.i.d.",100%
same,reduction of normalized iNOS mRNA expression,"Week 12, 20 mg b.i.d.",100%
same,reduction in IFN-γ gene expression in the skin,"week 4, the three subjects who attained a PASI-75 or better at week 12",100%
same,IL-12/23 p40 mRNA levels,"week 4 and week 12 biopsies, 20 mg b.i.d.",significant reductions
same,reduction of normalized expression of IL-8,"week 4 biopsies, 20 mg b.i.d.",76%
same,"inhibition of gene expression, responders vs non-responders","week 12, 20 mg BID",greater among responders
same,reduction of normalized expression of IL-8,"week 12 biopsies, 20 mg b.i.d.",66%
